{"source": "ChEMBL document CHEMBL3244003", "about": "“Synthesis and biological activity of several amino analogues of thymidine” (1978)", "key": {"Human alphaherpesvirus 1": {"test_system": "Human alphaherpesvirus 1", "assay": "Antiviral activity against HSV1 at 400 uM", "type": "functional"}, "CCRF S-180 [1]": {"test_system": "CCRF S-180", "assay": "Antineoplastic activity against mouse S180 cells at 400 uM", "type": "functional, cell-based"}, "L1210 [2]": {"test_system": "L1210", "assay": "Antineoplastic activity against mouse L1210 cells at 400 uM", "type": "functional, cell-based"}, "L1210 [3]": {"test_system": "L1210", "assay": "Antineoplastic activity against mouse L1210 cells at 500 uM", "type": "functional"}, "L1210 [4]": {"test_system": "L1210", "assay": "Antineoplastic activity against mouse L1210 cells at 25 uM in presence of uridine relative to compound alone", "type": "functional"}, "CCRF S-180 [5]": {"test_system": "CCRF S-180", "assay": "Antineoplastic activity against mouse S180 cells at 1 uM", "type": "functional"}, "CCRF S-180 [6]": {"test_system": "CCRF S-180", "assay": "Antineoplastic activity against mouse S180 cells at 5 uM", "type": "functional"}, "L1210 [7]": {"test_system": "L1210", "assay": "Antineoplastic activity against mouse L1210 cells at 25 uM in presence of deoxyuridine relative to compound alone", "type": "functional"}, "L1210 [8]": {"test_system": "L1210", "assay": "Antineoplastic activity against mouse L1210 cells at 1 uM", "type": "functional"}, "L1210 [9]": {"test_system": "L1210", "assay": "Antineoplastic activity against mouse L1210 cells at 15 uM", "type": "functional"}, "L1210 [10]": {"test_system": "L1210", "assay": "Antineoplastic activity against mouse L1210 cells at 5 uM in presence of deoxyuridine relative to compound alone", "type": "functional"}, "L1210 [11]": {"test_system": "L1210", "assay": "Antineoplastic activity against mouse L1210 cells at 1 uM in presence of deoxyadenosine relative to compound alone", "type": "functional"}, "L1210 [12]": {"test_system": "L1210", "assay": "Antineoplastic activity against mouse L1210 cells at 25 uM in presence of deoxycytidine relative to compound alone", "type": "functional"}, "L1210 [13]": {"test_system": "L1210", "assay": "Antineoplastic activity against mouse L1210 cells at 3 uM", "type": "functional"}, "L1210 [14]": {"test_system": "L1210", "assay": "Antineoplastic activity against mouse L1210 cells at 25 uM in presence of deoxyguanosine relative to compound alone", "type": "functional"}, "L1210 [15]": {"test_system": "L1210", "assay": "Antineoplastic activity against mouse L1210 cells at 9 uM in presence of thymidine relative to compound alone", "type": "functional"}, "CCRF S-180 [16]": {"test_system": "CCRF S-180", "assay": "Antineoplastic activity against mouse S180 cells at 250 uM", "type": "functional"}, "L1210 [17]": {"test_system": "L1210", "assay": "Antineoplastic activity against mouse L1210 cells at 1 uM in presence of deoxyuridine relative to compound alone", "type": "functional"}, "L1210 [18]": {"test_system": "L1210", "assay": "Antineoplastic activity against mouse L1210 cells at 5 uM in presence of uridine relative to compound alone", "type": "functional"}, "L1210 [19]": {"test_system": "L1210", "assay": "Antineoplastic activity against mouse L1210 cells at 250 uM", "type": "functional"}, "CCRF S-180 [20]": {"test_system": "CCRF S-180", "assay": "Antineoplastic activity against mouse S180 cells at 50 uM", "type": "functional"}, "L1210 [21]": {"test_system": "L1210", "assay": "Antineoplastic activity against mouse L1210 cells at 27 uM in presence of thymidine relative to compound alone", "type": "functional"}, "L1210 [22]": {"test_system": "L1210", "assay": "Antineoplastic activity against mouse L1210 cells at 5 uM in presence of deoxyadenosine relative to compound alone", "type": "functional"}, "L1210 [23]": {"test_system": "L1210", "assay": "Antineoplastic activity against mouse L1210 cells at 1 uM in presence of thymidine relative to compound alone", "type": "functional"}, "L1210 [24]": {"test_system": "L1210", "assay": "Antineoplastic activity against mouse L1210 cells at 25 uM", "type": "functional"}, "L1210 [25]": {"test_system": "L1210", "assay": "Antineoplastic activity against mouse L1210 cells at 50 uM", "type": "functional"}, "CCRF S-180 [26]": {"test_system": "CCRF S-180", "assay": "Antineoplastic activity against mouse S180 cells at 25 uM", "type": "functional"}, "L1210 [27]": {"test_system": "L1210", "assay": "Antineoplastic activity against mouse L1210 cells at 25 uM in presence of deoxyadenosine relative to compound alone", "type": "functional"}, "L1210 [28]": {"test_system": "L1210", "assay": "Antineoplastic activity against mouse L1210 cells at 1 uM in presence of cytidine relative to compound alone", "type": "functional"}, "L1210 [29]": {"test_system": "L1210", "assay": "Antineoplastic activity against mouse L1210 cells at 1 uM in presence of deoxycytidine relative to compound alone", "type": "functional"}, "L1210 [30]": {"test_system": "L1210", "assay": "Antineoplastic activity against mouse L1210 cells at 3 uM in presence of thymidine relative to compound alone", "type": "functional"}, "L1210 [31]": {"test_system": "L1210", "assay": "Antineoplastic activity against mouse L1210 cells at 25 uM in presence of cytidine relative to compound alone", "type": "functional"}, "L1210 [32]": {"test_system": "L1210", "assay": "Antineoplastic activity against mouse L1210 cells at 5 uM in presence of deoxycytidine relative to compound alone", "type": "functional"}, "L1210 [33]": {"test_system": "L1210", "assay": "Antineoplastic activity against mouse L1210 cells at 0.5 uM", "type": "functional"}, "L1210 [34]": {"test_system": "L1210", "assay": "Antineoplastic activity against mouse L1210 cells at 1 uM in presence of uridine relative to compound alone", "type": "functional"}, "L1210 [35]": {"test_system": "L1210", "assay": "Antineoplastic activity against mouse L1210 cells at 5 uM in presence of deoxyguanosine relative to compound alone", "type": "functional"}, "L1210 [36]": {"test_system": "L1210", "assay": "Antineoplastic activity against mouse L1210 cells at 1 uM in presence of deoxyguanosine relative to compound alone", "type": "functional"}, "L1210 [37]": {"test_system": "L1210", "assay": "Antineoplastic activity against mouse L1210 cells at 5 uM in presence of cytidine relative to compound alone", "type": "functional"}}, "note": "The source made the active and inactive calls. The rule behind the calls is not given here.", "data": [{"smiles": "Cc1cn([C@H]2C[C@H](O)[C@@H](CN)O2)c(=O)[nH]c1=O", "values": [{"measurement": "inhibition at 400 µM", "setting": "Human alphaherpesvirus 1", "result": 98, "unit": "%"}, {"measurement": "inhibition", "setting": "CCRF S-180 [1]", "result": "inactive"}, {"measurement": "inhibition", "setting": "L1210 [2]", "result": "inactive"}]}, {"smiles": "Cc1cn([C@H]2C[C@H](N)[C@@H](CN)O2)c(=O)[nH]c1=O", "values": [{"measurement": "inhibition", "setting": "Human alphaherpesvirus 1", "result": "inactive"}, {"measurement": "inhibition", "setting": "CCRF S-180 [1]", "result": "inactive"}, {"measurement": "inhibition", "setting": "L1210 [2]", "result": "inactive"}]}, {"smiles": "Cc1cn([C@H]2C[C@H](N)[C@@H](CO)O2)c(=O)[nH]c1=O", "note": "[3-AMINO- 3-DEOXYTHYMIDINE]", "values": [{"measurement": "inhibition at 500 µM", "setting": "L1210 [3]", "result": 95, "unit": "%"}, {"measurement": "inhibition at 25 µM", "setting": "L1210 [4]", "result": 95, "unit": "%"}, {"measurement": "inhibition at 1 µM", "setting": "CCRF S-180 [5]", "result": 37, "unit": "%"}, {"measurement": "inhibition at 5 µM", "setting": "CCRF S-180 [6]", "result": 55, "unit": "%"}, {"measurement": "inhibition at 400 µM", "setting": "Human alphaherpesvirus 1", "result": 62, "unit": "%"}, {"measurement": "inhibition at 25 µM", "setting": "L1210 [7]", "result": 48, "unit": "%"}, {"measurement": "inhibition at 1 µM", "setting": "L1210 [8]", "result": 58, "unit": "%"}, {"measurement": "inhibition at 15 µM", "setting": "L1210 [9]", "result": 91, "unit": "%"}, {"measurement": "inhibition at 5 µM", "setting": "L1210 [10]", "result": 74, "unit": "%"}, {"measurement": "inhibition at 1 µM", "setting": "L1210 [11]", "result": 89, "unit": "%"}, {"measurement": "inhibition at 25 µM", "setting": "L1210 [12]", "result": 28, "unit": "%"}, {"measurement": "inhibition at 3 µM", "setting": "L1210 [13]", "result": 87, "unit": "%"}, {"measurement": "inhibition at 25 µM", "setting": "L1210 [14]", "result": 102, "unit": "%"}, {"measurement": "inhibition at 9 µM", "setting": "L1210 [15]", "result": 38.1, "unit": "%"}, {"measurement": "inhibition at 250 µM", "setting": "CCRF S-180 [16]", "result": 73, "unit": "%"}, {"measurement": "inhibition at 1 µM", "setting": "L1210 [17]", "result": 88, "unit": "%"}, {"measurement": "inhibition at 5 µM", "setting": "L1210 [18]", "result": 99, "unit": "%"}, {"measurement": "inhibition at 250 µM", "setting": "L1210 [19]", "result": 93, "unit": "%"}, {"measurement": "inhibition at 50 µM", "setting": "CCRF S-180 [20]", "result": 66, "unit": "%"}, {"measurement": "inhibition at 27 µM", "setting": "L1210 [21]", "result": 22.4, "unit": "%"}, {"measurement": "inhibition at 5 µM", "setting": "L1210 [22]", "result": 89, "unit": "%"}, {"measurement": "inhibition at 1 µM", "setting": "L1210 [23]", "result": 75.2, "unit": "%"}, {"measurement": "inhibition at 25 µM", "setting": "L1210 [24]", "result": 88, "unit": "%"}, {"measurement": "inhibition at 50 µM", "setting": "L1210 [25]", "result": 92, "unit": "%"}, {"measurement": "inhibition at 25 µM", "setting": "CCRF S-180 [26]", "result": 68, "unit": "%"}, {"measurement": "inhibition at 25 µM", "setting": "L1210 [27]", "result": 93, "unit": "%"}, {"measurement": "inhibition at 1 µM", "setting": "L1210 [28]", "result": 100, "unit": "%"}, {"measurement": "inhibition at 1 µM", "setting": "L1210 [29]", "result": 80, "unit": "%"}, {"measurement": "inhibition at 3 µM", "setting": "L1210 [30]", "result": 55.2, "unit": "%"}, {"measurement": "inhibition at 25 µM", "setting": "L1210 [31]", "result": 99, "unit": "%"}, {"measurement": "inhibition at 5 µM", "setting": "L1210 [32]", "result": 61, "unit": "%"}, {"measurement": "inhibition at 0.5 µM", "setting": "L1210 [33]", "result": 43, "unit": "%"}, {"measurement": "inhibition at 1 µM", "setting": "L1210 [34]", "result": 100, "unit": "%"}, {"measurement": "inhibition at 5 µM", "setting": "L1210 [35]", "result": 86, "unit": "%"}, {"measurement": "inhibition at 1 µM", "setting": "L1210 [36]", "result": 87, "unit": "%"}, {"measurement": "inhibition at 5 µM", "setting": "L1210 [37]", "result": 100, "unit": "%"}]}]}
